Data reported in US20100048594A1, “USE OF CYTOHESIN INHIBITORS FOR CHEMICALLY INDUCING LONGEVITY” (RHEINISCHE FRIEDRICH-WILHELMS UNIVERSITAT, priority 2006, published 2010).

Columns and labels:
[1] = tested on: Drosophila eukaryotic initiation factor 4E binding protein (d4EBP, Thor); assay: Transcription rate of insulin target gene d4EBP in insulin-treated Drosophila S2 cells (real-time PCR); format: cell-based; details: 100 μM compound, 10 μg/ml human insulin, insulin alone less than 35%
Protocol: Drosophila Schneider 2 (S2) cells were cultivated in Schneider's Medium (PAN company) with 10% heat-inactivated fetal calf serum (FCS). 2×10^6 cells were drawn into 35 mm vessels at 25° C. to 80% confluence, washed one time in phosphate buffered saline solution (1×PBS, Gibco), and transferred for twelve hours to Schneider's Medium, without FCS. The cells were then preincubated for two hours with 0.5% DMSO containing Schneider's Medium, without FCS, with or without the compound according to formula (9) or formula (25), with the final concentrations of the compounds according to formulas (9) and (25) being 1 μM, 10 μM and 100 μM. This was followed by a four-hour stimulation with 10 μg/ml human insulin (Sigma).
After washing the cells two times with PBS, total RNA was then isolated from the cells using the NucleoSpin RNA II Kit (Macherey & Nagel), according to the manufacturer's instructions. The first strain cDNA synthesis was performed with every 500 ng RNA, using the QuantiTect Reverse Transcription Kit (Qiagen), according to the manufacturer's instructions. […]
The activity of the insulin signaling pathway was determined from the transcription rate of the insulin target gene Drosophila eukaryotic initiation factor 4E binding protein (d4EBP, Thor). […]

[2] = tested on: Drosophila melanogaster flies; assay: Lifespan of adult Drosophila melanogaster flies fed with compound (Kaplan-Meier analysis); format: in vivo; details: 10 μM compound in food; for Average Lifespan: ±margin of error
Protocol: The experiments were conducted on isogenic flies (Drosophila melanogaster) of the genotype white^1118, also called white^− or w^−, and mutants (w^1118; step^k08110/step^SH0323) (strain # 10770 from the public Bloomington Stock Center, genotype: step^k08110/CyO, URL http://flybase.bio.indiana.edu/reports/FBstOO10770.html; strain # FBst0103734 from the public Szeged Stock Center, genotype: step^SH0323/CyO, URL http://flybase.bio.indiana.edu/reports/FBst0103734.html), in which the Drosophila cytohesin steppke is mutated and therefore defective.
By crossing the two steppke alleles k08110 and SH0323 eight times with whites flies, an isogenic genetic background is produced, which permits a comparison of the lifespans between the genotypes of the type white^1118 and the mutants (w^1118; step^k08110/step^SH0323). The average lifespan of the wild type was approximately 25 days, while that of the mutants (w^1118; step^k08110/step^SH0323) was approximately 30 days.
To produce the special food, 32.5 g autolysed yeast (Fluka (Catalog No. 73145)) and 10 g agar (Difco (Catalog No. 281230)) were mixed with 300 ml water (demineralized, Roth (Catalog No. 3175)) and autoclaved at 120° C. for 20 minutes. The solution was cooled to 60° C., and 32.5 g α-D(+)-glucose monohydrate (Roth (Catalog No. 6887)) were added under stirring. 15 ml 10% (w/v) p-hydroxybenzoic acid methylester (Sigma (Catalog No. H3647)) solution dissolved in 70% (v/v) ethanol (Roth (Catalog No. 9065)) and 1.35 ml dimethylsulfoxide (DMSO, Roth (Catalog No. A994)) were then added. Water was then added to this basic solution to a volume of 450 ml, which was then held at a temperature of 60° C. For the control food, 50 ml of a 0.7% (v/v) DMSO solution in water were produced. For the food containing the compounds according to formulas (9) or (25), 0.2 ml of a 25 mM solution of the compounds according to formula (9) or (25) in 100% DMSO were added to 49.8 ml of a 0.3012% DMSO solution in water.
These 50 ml of the control solutions and the solutions containing the compounds according to formula (9) or (25) were each mixed with 450 ml of the basic solution, and were placed in 4 ml amounts in polystyrene containers (height 9.5 cm, diameter 2.4 cm, sealed with cotton wadding) to maintain the flies. After 24 hours, the cooled containers were sealed with cotton wadding and stored at 4° C.
The final concentration of the food components in the control food was 6.5% (w/v) autolysed yeast, 6.5% (w/v) α-D(+)-glucose monohydrate, 2% (w/v) agar, 0.3% (w/v) p-hydroxybenzoic acid methylester, 2.1% ethanol (v/v), 0.34% (v/v) DMSO.
The final concentration of the food components in the food containing the compound according to formula (9) was 6.5% (w/v) autolysed yeast, 6.5% (w/v) α-D(+)-glucose monohydrate, 2% (w/v) agar, 0.3% (w/v) p-hydroxybenzoic acid methylester, 2.1% ethanol (v/v), 0.34% (v/v) DMSO, 10 μM compound according to formula (9).
The final concentration of the food components in the food containing the compound according to formula (25) was 6.5% (w/v) autolysed yeast, 6.5% (w/v) α-D(+)-glucose monohydrate, 2% (w/v) agar, 0.3% (w/v) p-hydroxybenzoic acid methylester, 2.1% ethanol (v/v), 0.34% (v/v) DMSO, 10 μM compound according to formula (25).
The larvae were maintained on standard fly food containing 1.1% (w/v) brewer's yeast (“Gewürzmühle Brecht” company), 5.43% (w/v) cornmeal, 0.53% (w/v) filamentous agar (“Gewürzmühle Brecht” company), 6.6% (v/v) sugar beet syrup (Grafschafter), 1.3% (v/v) ethanol (Roth company), 0.13% (w/v) p-hydroxybenzoic acid methylester (Sigma).
24 hours after emergence of the imagines, the adult flies, females and males were separated under a brief CO2 anesthetization lasting less than 2 minutes. During the 24 hours after emergence, the animals were fed using standard fly food. […]

Q: Which “transcription rate of d4EBP as % of that of the untreated control groups” value [1] does the source give for `COc1nc(-c2ccc(C(C)(C)C)cc2)n(-c2ccc(NC(=O)CSc3ccccc3)cc2)n1` [Compound (25)] here?
A: The value was “more than 95%”.

Q: What about the change in lifespan ([2]; control animals and mutants) of the same compound?
A: Its change in lifespan is “no significant change”.

Q: And the “Average Lifespan” value ([2]; genotype w^1118, female flies)?
A: The value was 25.0 (±0.7) Days.

Q: And the “Average Lifespan” value ([2]; genotype w^1118, step^k08110/step^SH0323 mutants, female flies)?
A: The value was 29.3 (±0.7) Days.
